Results: patent publication US20090137565A1, “Method for treatment of movement disorders” (The Trustees of Columbia University in the City of New York, priority 2004, published 2009)

Tested on: severe alcohol-responsive posthypoxic myoclonus
Assay: Single-patient open-label dose-finding trial of GHB, blinded Unified Myoclonus Rating Scale (UMRS)
Format: in vivo, human
Details: for UMRS I (Self Assessment) score: max 44, 0 gm score 33; for UMRS VIII (Severity) score: max 3, 0 gm score 2; for UMRS I (Global Disability) score / UMRS VI (MD Global Disab.) score: max 4, 0 gm score 3; for UMRS III (Stimulus-Sens.) score: max 17, 0 gm score 12; for UMRS V (Funct. Performance) score: max 20, 0 gm score 20; for UMRS II (Myoclonus @ Rest) score: max 128, 0 gm score 21; for UMRS IV (Action Myoclonus) score: max 160, 0 gm score 108; for UMRS VII (Neg. Myoclonus) score: present (1) or absent (0), 0 gm score 1
Method: An open-label, dose-finding, blinded rating trial of GHB in a single patient with severe, debilitating alcohol-responsive posthypoxic myoclonus refractory to treatment with standard anti-myoclonic agents was conduced. […] Intensity and severity of myoclonus was measured using the Unified Myoclonus Rating Scale (UMRS), a non-invasive clinical rating scale. In addition, the patient was videotaped while the UMRS was performed, so that myoclonus could be scored by a blinded rater.
Given the dramatic response to alcohol, a single-patient, open-label, dose-ranging trial to assess the tolerability and efficacy of GHB (Xyrem®, Orphan Medical, Inc.) as a treatment for alcohol-responsive posthypoxic myoclonus was designed, which was approved by The Columbia University Medical Center Institutional Review Board. After obtaining informed consent, they were videotaped during performance of the Unified Myoclonus Rating Scale (UMRS). The UMRS is a validated clinical rating instrument that measures the severity and intensity of myoclonus and has been used in other trials of anti-myoclonic agents. Frucht S. J., et al., Adv Neurology Vol. 89 Lippincott Williams and Wilkins, Philadelphia, 2002:361-376. The scale consists of eight sections: section I: patient questionnaire (11 items); section II: myoclonus at rest (frequency and amplitude, 16 items); section III: stimulus-sensitive myoclonus (17 items); section IV: severity of myoclonus with action (frequency and amplitude, 20 items); section V: performance on functional tests (5 items); section VI: physician rating of patient's global disability (1 item); section VII: presence of negative myoclonus (1 item); section VIII: severity of negative myoclonus (1 item). Each item is rated on a scale of 0 to 4, with higher scores assigned to myoclonus of greater severity or frequency. For section III stimulus-sensitivity is either present (1) or absent (0); section VII negative myoclonus either present (1) or absent (0); and section VIII negative myoclonus absent (0) to severe (3).
All office visits and the UMRS scale were performed by the supervisory physician. The patient came to the office for five visits, each separated by two weeks (time 0, 2 weeks, 4 weeks, 6 weeks and 8 weeks). At each visit, the physician examined the patient, and inquired about any adverse events. The physician performed the UMRS while the patient was videotaped. Xyrem® was dispensed by the physician at each visit.
At the initial visit the UMRS was performed and videotaped, 1 gm of GHB was administered by mouth, and they were monitored in the office for one hour. They then took 1 gm twice daily for two weeks, at which time they returned to the office. One hour after receiving 2 grams of GHB, the UMRS was performed and videotaped and for the next two weeks they took 2 grams twice daily. Two weeks later, the UMRS was performed and videotaped one hour after receiving 3 grams of GHB, and after two weeks of 3 grams twice daily, the same procedure was performed after receiving 4 grams in the office. After taking 4 grams twice daily for two weeks, they returned for UMRS videotaping, and the decision was made to continue the target dose of 4 gm twice daily.
A movement disorder neurologist blinded to the trial design scored videotapes of the baseline visit, 2 gm, 3 gm, 4 gm (first) and 4 gm (second) visits in random order. The blinded rater was not provided with treatment scores of section I of the UMRS (patient self-assessment) in order to maintain the rating blind. Scores for each section were calculated as described previously. Frucht S. J., et al., Adv Neurology Vol. 89. Lippincott Williams and Wilkins, Philadelphia, 2002:361-376.

O=C([O-])CCCO.[Na+] [GHB, 4-hydroxybutanoic acid monosodium salt]
resting and stimulus-sensitive myoclonus (2 gm twice daily): markedly improved
UMRS I (Self Assessment) score (2 gm, 1 h after oral dose): 31
UMRS VIII (Severity) score (2 gm): 2
UMRS I (Global Disability) score (2 gm): 3
UMRS VI (MD Global Disab.) score (2 gm): 2
UMRS III (Stimulus-Sens.) score (2 gm): 5
UMRS V (Funct. Performance) score (2 gm): 10
UMRS II (Myoclonus @ Rest) score (2 gm): 8
UMRS IV (Action Myoclonus) score (2 gm): 70
UMRS VII (Neg. Myoclonus) score (2 gm): 1
resting and stimulus-sensitive myoclonus (3 gm twice daily): virtually disappeared
UMRS VIII (Severity) score (3 gm): 2
UMRS I (Global Disability) score (3 gm): 2
UMRS VI (MD Global Disab.) score (3 gm): 2
UMRS III (Stimulus-Sens.) score (3 gm): 1
UMRS V (Funct. Performance) score (3 gm): 8
UMRS I (Self Assessment) score (3 gm): 25
UMRS II (Myoclonus @ Rest) score (3 gm): 3
UMRS IV (Action Myoclonus) score (3 gm): 64
UMRS VII (Neg. Myoclonus) score (3 gm): 1
UMRS VIII (Severity) score (4 gm (2nd visit)): 2
UMRS I (Global Disability) score (4 gm (2nd visit)): 2
UMRS VI (MD Global Disab.) score (4 gm (2nd visit)): 2
UMRS III (Stimulus-Sens.) score (4 gm (2nd visit)): 3
UMRS V (Funct. Performance) score (4 gm (2nd visit)): 4
UMRS I (Self Assessment) score (4 gm (2nd visit)): 15
UMRS II (Myoclonus @ Rest) score (4 gm (2nd visit)): 1
UMRS IV (Action Myoclonus) score (4 gm (2nd visit)): 58
UMRS VII (Neg. Myoclonus) score (4 gm (2nd visit)): 1
UMRS VIII (Severity) score (4 gm): 2
UMRS I (Global Disability) score (4 gm): 2
UMRS VI (MD Global Disab.) score (4 gm): 2
UMRS III (Stimulus-Sens.) score (4 gm): 1
UMRS V (Funct. Performance) score (4 gm): 7
UMRS I (Self Assessment) score (4 gm): 18
UMRS II (Myoclonus @ Rest) score (4 gm): 1
UMRS IV (Action Myoclonus) score (4 gm): 53
UMRS VII (Neg. Myoclonus) score (4 gm): 1
myoclonus at rest and stimulus-sensitive myoclonus (UMRS and blinded video rating, divided doses during the day): complete resolution
duration of benefit (after the first 2 gm dose): approximately 3 hours
time at which benefit peaked (after the first 2 gm dose): one
time to marked diminution of myoclonus at rest and stimulus-sensitivity (after the first 2 gm dose): ≤ 20 min
change in clinical examination (after the initial 1 gm dose): Little difference
time of peak effect (each dose greater than or equal to 2 gm): one
negative myoclonus, blinded videotape review (human, in vivo): did not confirm the examiner's impression that negative myoclonus improved
improvement of functional performance (section V) (writing, spiral copying, pouring, using a spoon): 80%
